Holding throughout (assay type): biochemical
Experiment [1] addresses EphA7 (Homo sapiens, UniProt Q15375). The experiment in a line: Protein kinase inhibition, EphA7. To be noted: Rate (μM) 2, read-out: % Control.
For experiment [2], the target named is c-RAF (Homo sapiens, UniProt P04049). The experiment in a line: c-RAF Kinase Activity. On the procedure: (§1) c-RAF Kinase Activity: In a final reaction volume of 25 μl, c-RAF (h) (5-10 mU) is incubated with 25 mM Tris pH 7.5, 0.02 mM EGTA, 0.66 mg/ml myelin basic protein, 10 mM MgAcetate, and [γ-^33P-ATP] (specific activity approx. 500 cpm/pmol, concentration as required). The reaction is initiated by the addition of the MgATP mix. After incubation for 40 minutes at room temperature, the reaction is stopped by the addition of 5 μl of a 3% phosphoric acid solution. 10 μl of the reaction is then spotted onto a P30 filtermat and washed three times for 5 minutes in 75 mM phosphoric acid and once in methanol prior to drying and scintillation counting.

In experiment [3] the target is TAK1 (Homo sapiens, UniProt O43318). The experiment in a line: Protein kinase inhibition, TAK1. The settings on record: Rate (μM) 2, read-out: % Control.
Experiment [4] concerns the target EphA5 (Homo sapiens, UniProt P54756). Description: Protein kinase inhibition, EphA5. To be noted: Rate (μM) 2.
Experiment [5] addresses p38δ (Homo sapiens, UniProt O15264). The experiment in a line: SAPK4 Kinase Activity (p38δ). On the procedure:
as §1, with “SAPK4 Kinase” for “c-RAF Kinase”, “μl, SAPK4” for “μl, c-RAF”, “EGTA, 0.33” for “EGTA, 0.66”, “mM MgAcetate” for “mM MgAcetate,”, “10 μL” for “10 μl”, “is the” for “is then”

Each structure is given as a SMILES string.

p38δ, sequence (O15264 whole entry): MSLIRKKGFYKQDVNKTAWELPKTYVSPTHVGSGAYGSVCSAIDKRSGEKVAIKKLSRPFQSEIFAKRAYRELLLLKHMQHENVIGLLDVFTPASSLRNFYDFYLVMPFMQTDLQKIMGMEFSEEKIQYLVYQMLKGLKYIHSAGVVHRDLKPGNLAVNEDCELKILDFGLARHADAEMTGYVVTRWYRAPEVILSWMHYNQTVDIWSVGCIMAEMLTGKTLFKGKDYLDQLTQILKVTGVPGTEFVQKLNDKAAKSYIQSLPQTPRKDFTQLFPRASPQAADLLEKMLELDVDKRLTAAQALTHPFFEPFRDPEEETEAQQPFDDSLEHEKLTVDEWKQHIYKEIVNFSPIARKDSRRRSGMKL
c-RAF, sequence (P04049 whole entry): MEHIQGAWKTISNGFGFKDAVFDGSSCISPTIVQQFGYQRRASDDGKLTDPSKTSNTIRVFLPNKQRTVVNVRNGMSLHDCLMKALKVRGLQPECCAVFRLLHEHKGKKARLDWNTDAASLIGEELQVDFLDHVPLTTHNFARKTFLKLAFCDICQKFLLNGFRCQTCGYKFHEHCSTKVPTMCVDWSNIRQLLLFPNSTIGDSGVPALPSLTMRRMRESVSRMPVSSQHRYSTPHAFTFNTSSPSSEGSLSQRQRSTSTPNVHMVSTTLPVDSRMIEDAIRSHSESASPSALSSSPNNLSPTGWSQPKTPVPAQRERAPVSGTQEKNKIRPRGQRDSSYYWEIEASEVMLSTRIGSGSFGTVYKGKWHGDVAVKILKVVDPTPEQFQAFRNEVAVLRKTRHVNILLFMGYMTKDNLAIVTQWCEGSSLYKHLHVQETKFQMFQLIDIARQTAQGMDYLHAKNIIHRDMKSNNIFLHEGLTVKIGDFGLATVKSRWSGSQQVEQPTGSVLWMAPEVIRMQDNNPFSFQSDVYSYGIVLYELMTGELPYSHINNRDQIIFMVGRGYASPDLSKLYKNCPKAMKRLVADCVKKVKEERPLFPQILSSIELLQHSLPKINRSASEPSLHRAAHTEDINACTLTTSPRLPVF
EphA7, sequence (Q15375 28-998): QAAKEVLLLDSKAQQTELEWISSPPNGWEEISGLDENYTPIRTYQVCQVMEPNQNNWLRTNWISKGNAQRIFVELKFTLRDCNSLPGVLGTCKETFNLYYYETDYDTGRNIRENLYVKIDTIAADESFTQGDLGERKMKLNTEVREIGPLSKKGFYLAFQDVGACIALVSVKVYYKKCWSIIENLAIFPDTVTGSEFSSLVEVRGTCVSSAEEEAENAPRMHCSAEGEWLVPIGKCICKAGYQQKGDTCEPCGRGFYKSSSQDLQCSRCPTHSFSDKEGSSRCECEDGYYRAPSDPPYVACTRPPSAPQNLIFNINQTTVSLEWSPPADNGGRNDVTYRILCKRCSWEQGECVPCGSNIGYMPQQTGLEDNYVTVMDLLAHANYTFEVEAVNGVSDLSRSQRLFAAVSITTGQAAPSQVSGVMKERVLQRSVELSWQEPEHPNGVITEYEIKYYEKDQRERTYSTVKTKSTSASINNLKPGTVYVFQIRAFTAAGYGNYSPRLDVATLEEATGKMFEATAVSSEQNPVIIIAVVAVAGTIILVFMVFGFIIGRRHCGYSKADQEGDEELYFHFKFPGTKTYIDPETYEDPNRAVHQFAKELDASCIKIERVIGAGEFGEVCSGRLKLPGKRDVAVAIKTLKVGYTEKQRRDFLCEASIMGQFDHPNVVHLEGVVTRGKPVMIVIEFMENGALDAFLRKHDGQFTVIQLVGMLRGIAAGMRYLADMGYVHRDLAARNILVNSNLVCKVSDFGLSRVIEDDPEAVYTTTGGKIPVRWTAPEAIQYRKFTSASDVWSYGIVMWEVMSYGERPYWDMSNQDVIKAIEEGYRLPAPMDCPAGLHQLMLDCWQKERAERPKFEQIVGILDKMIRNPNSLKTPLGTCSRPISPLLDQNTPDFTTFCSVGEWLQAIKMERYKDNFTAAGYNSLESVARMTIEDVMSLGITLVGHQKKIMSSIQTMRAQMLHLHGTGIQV
EphA5, sequence (P54756 25-1037): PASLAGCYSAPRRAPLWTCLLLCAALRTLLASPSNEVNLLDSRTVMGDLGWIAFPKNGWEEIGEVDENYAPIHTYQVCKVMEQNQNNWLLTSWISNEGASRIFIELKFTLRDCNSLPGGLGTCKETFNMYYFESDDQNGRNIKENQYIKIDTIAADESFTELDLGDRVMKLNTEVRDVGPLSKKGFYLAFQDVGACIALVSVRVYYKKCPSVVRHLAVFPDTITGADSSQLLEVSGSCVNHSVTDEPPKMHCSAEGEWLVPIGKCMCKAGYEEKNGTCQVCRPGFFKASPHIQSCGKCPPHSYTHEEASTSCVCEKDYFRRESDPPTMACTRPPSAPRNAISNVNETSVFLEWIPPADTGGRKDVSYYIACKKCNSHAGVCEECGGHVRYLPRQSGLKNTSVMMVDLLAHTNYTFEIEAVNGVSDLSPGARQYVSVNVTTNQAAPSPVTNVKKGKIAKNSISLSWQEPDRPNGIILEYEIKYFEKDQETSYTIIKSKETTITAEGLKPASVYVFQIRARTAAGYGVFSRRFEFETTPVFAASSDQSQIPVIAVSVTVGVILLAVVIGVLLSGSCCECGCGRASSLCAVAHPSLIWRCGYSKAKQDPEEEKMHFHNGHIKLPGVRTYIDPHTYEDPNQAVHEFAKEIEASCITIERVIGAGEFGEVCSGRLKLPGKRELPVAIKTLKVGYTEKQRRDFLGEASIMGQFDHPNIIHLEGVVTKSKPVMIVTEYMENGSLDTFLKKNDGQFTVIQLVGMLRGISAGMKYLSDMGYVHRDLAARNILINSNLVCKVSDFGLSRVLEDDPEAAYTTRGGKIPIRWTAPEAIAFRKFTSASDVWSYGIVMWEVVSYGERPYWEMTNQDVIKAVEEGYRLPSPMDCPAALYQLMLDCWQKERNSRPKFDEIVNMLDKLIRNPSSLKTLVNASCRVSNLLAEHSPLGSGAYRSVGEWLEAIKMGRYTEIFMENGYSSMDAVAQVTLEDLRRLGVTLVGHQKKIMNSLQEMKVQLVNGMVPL
TAK1, sequence (O43318 1-303 limits assumed): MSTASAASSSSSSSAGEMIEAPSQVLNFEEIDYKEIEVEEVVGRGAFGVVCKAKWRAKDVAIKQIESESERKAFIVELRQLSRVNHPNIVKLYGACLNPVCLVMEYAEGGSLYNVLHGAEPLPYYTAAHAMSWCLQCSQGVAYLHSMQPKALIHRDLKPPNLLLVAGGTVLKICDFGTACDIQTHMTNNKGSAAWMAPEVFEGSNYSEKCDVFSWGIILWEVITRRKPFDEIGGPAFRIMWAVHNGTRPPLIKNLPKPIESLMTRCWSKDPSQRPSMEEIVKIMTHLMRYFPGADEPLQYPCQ

For `CC(C)(C)c1cc(C(=O)N2CCS(=O)(=O)CC2)c(NC(=O)Nc2ccc(Oc3ccncc3)cc2)s1` [Example 3, 1-[5-tert-Butyl-3-(1,1-dioxo-1λ^6-thiomorpholine-4-carbonyl)thiophen-2-yl]-3-[4-(pyridin-4-yloxy)phenyl]urea], the remaining activity at 2 µM in experiment [1] fell in the range of 76 to 100%; in experiment [2] (40 min, cRaf, Human, Rate (μM) 2, read-out: % Control), 76 to 100%; in experiment [3] it was 76 to 100%; in experiment [5] (40 min, P38d, Human, Rate (μM) 2, read-out: % Control) it was 76 to 100%. In addition, the “% Inhibition at 2 μm” value in experiment [2] (c-RAF, compound at 2 μm) is recorded as 76-100%; in experiment [5] (p38δ, compound at 2 μm), 76-100%. For the same compound, the “% Control” value in experiment [4] is given as 76-100%.

Values taken from patent publication US7612200B2, “Inhibitors of protein kinases” (Locus Pharmaceuticals, Inc., priority 2004, dated 2009).
